Molecules are shown by their SMILES.

One data set deals with R28. In words: Antioxidant activity in rat R28 cells assessed as protection against OGD induced cytotoxicity by measuring cellular ATP level preincubated under OGD condition for 8 hrs followed by reoxygenation for 4 hrs by CellTiter-Lumi Plus cell viability assay. The format is functional, cell-based. The conditions noted are these: dose 0.1-40 µM, time 12.0 hrs.
As for `CC(C)(O)[C@H]1CC[C@@](C)([C@H]2CC[C@]3(C)[C@@H]2[C@H](O)C[C@@H]2[C@@]4(C)CC[C@H](O)C(C)(C)[C@@H]4CC[C@]23C)O1`, the Activity result was “Dose-Dependent Effect”.

Tested on in another data set: not listed separately
Put plainly: Cytotoxicity against rat R28 cells assessed as decrease in cellular ATP content incubated for 24 hrs by CellTiter-Lumi Plus cell viability assay. It is filed as toxicity, cell-based. The following applies: r28, 24 h.
On to `CC(C)(O)[C@H]1CC[C@@](C)([C@H]2CC[C@]3(C)[C@@H]2[C@H](O)C[C@@H]2[C@@]4(C)CC[C@H](OC(=O)CCC(=O)NCCCN)C(C)(C)[C@@H]4CC[C@]23C)O1`, for which the Activity entry is listed as “Non-Toxic”. Still for that read-out and setting: the entry for `CC(C)(O)[C@H]1CC[C@@](C)([C@H]2CC[C@]3(C)[C@@H]2[C@H](O)C[C@@H]2[C@@]4(C)CC[C@H](OC(=O)CCC(=O)O)C(C)(C)[C@@H]4CC[C@]23C)O1` is “Non-Toxic”; for `CC(C)(O)[C@@H]1CC[C@@](C)([C@H]2CC[C@]3(C)[C@@H]2[C@H](O)C[C@@H]2[C@@]4(C)Cc5c(C(=O)NCCCCN)noc5C(C)(C)[C@@H]4CC[C@]23C)O1` it is “Non-Toxic”. Still for that read-out and setting: the entry for `CC(C)(O)[C@@H]1CC[C@@](C)([C@H]2CC[C@]3(C)[C@@H]2[C@H](O)C[C@@H]2[C@@]4(C)CC[C@H](OC(=O)CCC(=O)Nc5ccccc5N)C(C)(C)[C@@H]4CC[C@]23C)O1` is “Non-Toxic”; for `CC(C)(O)[C@@H]1CC[C@@](C)([C@H]2CC[C@]3(C)[C@@H]2[C@H](O)C[C@@H]2[C@@]4(C)Cc5c(C(=O)Nc6ccc(N)cc6)noc5C(C)(C)[C@@H]4CC[C@]23C)O1` it is “Non-Toxic”; for `CC(C)(O)[C@@H]1CC[C@@](C)([C@H]2CC[C@]3(C)[C@@H]2[C@H](O)C[C@@H]2[C@@]4(C)CC[C@H](OC(=O)CCC(=O)Nc5ccc(N)cc5)C(C)(C)[C@@H]4CC[C@]23C)O1` it is “Non-Toxic”. Same read-out and setting: the entry for `CC(C)(O)[C@@H]1CC[C@@](C)([C@H]2CC[C@]3(C)[C@@H]2[C@H](O)C[C@@H]2[C@@]4(C)Cc5c(C(=O)NCCCN)noc5C(C)(C)[C@@H]4CC[C@]23C)O1` is “Non-Toxic”; for `CC(C)(O)[C@@H]1CC[C@@](C)([C@H]2CC[C@]3(C)[C@@H]2[C@H](O)C[C@@H]2[C@@]4(C)CC[C@H](OC(=O)CCC(=O)Nc5cccc(N)c5)C(C)(C)[C@@H]4CC[C@]23C)O1` it is “Non-Toxic”. Turning to `CC(C)(O)[C@H]1CC[C@@](C)([C@H]2CC[C@]3(C)[C@@H]2[C@H](O)C[C@@H]2[C@@]4(C)CC[C@H](OC(=O)CCC(=O)Nc5ccccc5N)C(C)(C)[C@@H]4CC[C@]23C)O1`, the Activity entry was “Non-Toxic”. Same read-out and setting: the entry for `CC(C)(O)[C@@H]1CC[C@@](C)([C@H]2CC[C@]3(C)[C@@H]2[C@H](O)C[C@@H]2[C@@]4(C)Cc5sc(NC(=O)CC(=O)O)nc5C(C)(C)[C@@H]4CC[C@]23C)O1` is “Non-Toxic”; for `CC(C)(O)[C@@H]1CC[C@@](C)([C@H]2CC[C@]3(C)[C@@H]2[C@H](O)C[C@@H]2[C@@]4(C)CC[C@H](OC(=O)CCC(=O)NCCCN)C(C)(C)[C@@H]4CC[C@]23C)O1` it is “Non-Toxic”; for `CCOC(=O)c1noc2c1C[C@]1(C)[C@H]3C[C@@H](O)[C@@H]4[C@@H]([C@]5(C)CC[C@@H](C(C)(C)O)O5)CC[C@@]4(C)[C@]3(C)CC[C@H]1C2(C)C` it is “Non-Toxic”. Same read-out and setting: the entry for `CC(C)(O)[C@H]1CC[C@@](C)([C@H]2CC[C@]3(C)[C@@H]2[C@H](O)C[C@@H]2[C@@]4(C)Cc5sc(N)nc5C(C)(C)[C@@H]4CC[C@]23C)O1` is “Non-Toxic”. With `CC(C)(O)[C@H]1CC[C@@](C)([C@H]2CC[C@]3(C)[C@@H]2[C@H](O)C[C@@H]2[C@@]4(C)Cc5c(C(=O)O)noc5C(C)(C)[C@@H]4CC[C@]23C)O1`, the Activity result is on record as “Non-Toxic”. Same read-out and setting: the entry for `CC(C)(O)[C@@H]1CC[C@@](C)([C@H]2CC[C@]3(C)[C@@H]2[C@H](O)C[C@@H]2[C@@]4(C)Cc5sc(NC(=O)CCCC(=O)O)nc5C(C)(C)[C@@H]4CC[C@]23C)O1` is “Non-Toxic”; for `CC(C)(O)[C@H]1CC[C@@](C)([C@H]2CC[C@]3(C)[C@@H]2[C@H](O)C[C@@H]2[C@@]4(C)CC[C@H](OC(=O)CCC(=O)Nc5cccc(N)c5)C(C)(C)[C@@H]4CC[C@]23C)O1` it is “Non-Toxic”; for `CC(C)(O)[C@@H]1CC[C@@](C)([C@H]2CC[C@]3(C)[C@@H]2[C@H](O)C[C@@H]2[C@@]4(C)CC[C@H](O)C(C)(C)[C@@H]4CC[C@]23C)O1` it is “Non-Toxic”. On the same count and under the same terms, the entry for `CC(C)(O)[C@H]1CC[C@@](C)([C@H]2CC[C@]3(C)[C@@H]2[C@H](O)C[C@@H]2[C@@]4(C)CC[C@H](O)C(C)(C)[C@@H]4CC[C@]23C)O1` is “Non-Toxic”. As to `CC(C)(O)[C@H]1CC[C@@](C)([C@H]2CC[C@]3(C)[C@@H]2[C@H](O)C[C@@H]2[C@@]4(C)Cc5sc(NC(=O)CC(=O)O)nc5C(C)(C)[C@@H]4CC[C@]23C)O1`, the Activity result was “Non-Toxic”.

In the case of `CC(C)(O)[C@@H]1CC[C@@](C)([C@H]2CC[C@]3(C)[C@@H]2[C@H](O)C[C@@H]2[C@@]4(C)Cc5c(C(=O)NCCCCCCN)noc5C(C)(C)[C@@H]4CC[C@]23C)O1`, the Activity result was “Non-Toxic”. With `CC(C)(O)[C@@H]1CC[C@@](C)([C@H]2CC[C@]3(C)[C@@H]2[C@H](O)C[C@@H]2[C@@]4(C)Cc5c(C(=O)O)noc5C(C)(C)[C@@H]4CC[C@]23C)O1`, the Activity entry is “Non-Toxic”. On the same count and under the same terms, the entry for `CC(C)(O)[C@H]1CC[C@@](C)([C@H]2CC[C@]3(C)[C@@H]2[C@H](O)C[C@@H]2[C@@]4(C)CC[C@H](OC(=O)CCC(=O)Nc5ccc(N)cc5)C(C)(C)[C@@H]4CC[C@]23C)O1` is “Non-Toxic”; for `CC(C)(O)[C@@H]1CC[C@@](C)([C@H]2CC[C@]3(C)[C@@H]2[C@H](O)C[C@@H]2[C@@]4(C)Cc5sc(NC(=O)CCCSSCCCC(=O)O)nc5C(C)(C)[C@@H]4CC[C@]23C)O1` it is “Non-Toxic”; for `CC(C)(O)[C@H]1CC[C@@](C)([C@H]2CC[C@]3(C)[C@@H]2[C@H](O)C[C@@H]2[C@@]4(C)Cc5c(C(=O)NCCCCN)noc5C(C)(C)[C@@H]4CC[C@]23C)O1` it is “Non-Toxic”. Still for that read-out and setting: the entry for `CC(C)(O)[C@H]1CC[C@@](C)([C@H]2CC[C@]3(C)[C@@H]2[C@H](O)C[C@@H]2[C@@]4(C)Cc5c(C(=O)NCCCN)noc5C(C)(C)[C@@H]4CC[C@]23C)O1` is “Non-Toxic”; for `CC(C)(O)[C@H]1CC[C@@](C)([C@H]2CC[C@]3(C)[C@@H]2[C@H](O)C[C@@H]2[C@@]4(C)Cc5sc(NC(=O)c6ccccc6C(=O)O)nc5C(C)(C)[C@@H]4CC[C@]23C)O1` it is “Non-Toxic”; for `CC(C)(O)[C@@H]1CC[C@@](C)([C@H]2CC[C@]3(C)[C@@H]2[C@H](O)C[C@@H]2[C@@]4(C)Cc5sc(N)nc5C(C)(C)[C@@H]4CC[C@]23C)O1` it is “Non-Toxic”.

For the molecule `CC(C)(O)[C@@H]1CC[C@@](C)([C@H]2CC[C@]3(C)[C@@H]2[C@H](O)C[C@@H]2[C@@]4(C)CC[C@H](OC(=O)CCC(=O)O)C(C)(C)[C@@H]4CC[C@]23C)O1`, the Activity entry is “Non-Toxic”. The same measure, in the same setting: the entry for `CC(C)(O)[C@H]1CC[C@@](C)([C@H]2CC[C@]3(C)[C@@H]2[C@H](O)C[C@@H]2[C@@]4(C)Cc5c(C(=O)Nc6ccc(N)cc6)noc5C(C)(C)[C@@H]4CC[C@]23C)O1` is “Non-Toxic”; for `CCOC(=O)c1noc2c1C[C@]1(C)[C@H]3C[C@@H](O)[C@@H]4[C@@H]([C@]5(C)CC[C@H](C(C)(C)O)O5)CC[C@@]4(C)[C@]3(C)CC[C@H]1C2(C)C` it is “Non-Toxic”; for `CC(C)(O)[C@H]1CC[C@@](C)([C@H]2CC[C@]3(C)[C@@H]2[C@H](O)C[C@@H]2[C@@]4(C)Cc5c(C(=O)NCCCCCCN)noc5C(C)(C)[C@@H]4CC[C@]23C)O1` it is “Non-Toxic”.

Turning to `CC(C)(O)[C@@H]1CC[C@@](C)([C@H]2CC[C@]3(C)[C@@H]2[C@H](O)C[C@@H]2[C@@]4(C)Cc5sc(NC(=O)c6ccccc6C(=O)O)nc5C(C)(C)[C@@H]4CC[C@]23C)O1`, the Activity result is given as “Non-Toxic”.

Take `CC(C)(O)[C@H]1CC[C@@](C)([C@H]2CC[C@]3(C)[C@@H]2[C@H](O)C[C@@H]2[C@@]4(C)Cc5sc(NC(=O)CCCSSCCCC(=O)O)nc5C(C)(C)[C@@H]4CC[C@]23C)O1`: the Activity result is reported as “Non-Toxic”. Same read-out and setting: as for `CC(C)(O)[C@H]1CC[C@@](C)([C@H]2CC[C@]3(C)[C@@H]2[C@H](O)C[C@@H]2[C@@]4(C)Cc5sc(NC(=O)CCCC(=O)O)nc5C(C)(C)[C@@H]4CC[C@]23C)O1`, the entry is “Non-Toxic”.
